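Following 48 hours of exposure in 96-well plates, responses at five concentrations were used to interpolate endpoints linearly. The concentration for 50% growth inhibition is given as GI50.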 Activity calls are given as the source filed them. No stated cut-off is given here; in the data, active = GI50 up to about 1.1 µM and inactive = higher.
Legend:
Assay in all cases: DTP human tumour cell line panel, 48 h
[1] = test system: PC-3
[2] = test system: DU-145
[3] = test system: TK-10
[4] = test system: Hs-578T
[5] = test system: MDA-MB-435
[6] = test system: Malme-3M
[7] = test system: SF-539
[8] = test system: SN12C
[9] = test system: CAKI-1
[10] = test system: SNB-75
[11] = test system: IGROV-1
[12] = test system: UACC-257
[13] = test system: NCI-H460
[14] = test system: MCF7
[15] = test system: UO-31
[16] = test system: KM12
[17] = test system: A498
[18] = test system: NCI-H226
[19] = test system: HL-60
[20] = test system: A549
[21] = test system: OVCAR-3
[22] = test system: MOLT-4
[23] = test system: RXF 393
[24] = test system: OVCAR-8
[25] = test system: SF-268
[26] = test system: SK-OV-3
[27] = test system: HCT-116
[28] = test system: OVCAR-4
[29] = test system: SK-MEL-2
[30] = test system: NCI-H522
[31] = test system: SF-295
[32] = test system: ACHN
[33] = test system: HOP-62
[34] = test system: HOP-92
[35] = test system: M14
[36] = test system: SK-MEL-28
[37] = test system: COLO 205
[38] = test system: UACC-62
[39] = test system: SK-MEL-5
[40] = test system: RPMI-8226
[41] = test system: NCI/ADR-RES
[42] = test system: U-251
[43] = test system: SNB-19
[44] = test system: SR
[45] = test system: NCI-H23
[46] = test system: 786-0
[47] = test system: T47D
[48] = test system: K562
[49] = test system: MDA-MB-231
[50] = test system: OVCAR-5
[51] = test system: SW-620
[52] = test system: HT-29
[53] = test system: HCT-15

For `Cc1ccc([Se](=C(C(=O)c2ccccc2)C(=O)c2ccccc2)c2ccc(C)cc2)cc1`, the GI50 [1] was 23.3 µM (inactive), the GI50 [2] was 38.7 µM (inactive) and the GI50 [3] was 23.4 µM (inactive). For the same compound, the GI50 [4] was 22.8 µM (inactive), the GI50 [5] was 20.5 µM (inactive) and the GI50 [6] was 18.4 µM (inactive). For the same compound, the GI50 [7] was 25.6 µM (inactive), the GI50 [8] was 12.8 µM (inactive) and the GI50 [9] was 19.5 µM (inactive). For the same compound, the GI50 [10] was 37.8 µM (inactive), the GI50 [11] was 19.6 µM (inactive) and the GI50 [12] was 17.5 µM (inactive). The GI50 [13] was 25.5 µM (inactive), the GI50 [14] was 26.7 µM (inactive) and the GI50 [15] was 30.4 µM (inactive). For the same compound, the GI50 [16] was 18.9 µM (inactive), the GI50 [17] was 14.8 µM (inactive) and the GI50 [18] was 20.2 µM (inactive). The GI50 [19] was 21.3 µM (inactive), the GI50 [20] was 25.3 µM (inactive) and the GI50 [21] was 20.6 µM (inactive). The GI50 [22] was 16 µM (inactive), the GI50 [23] was 68.1 µM (inactive) and the GI50 [24] was 26.4 µM (inactive). For the same compound, the GI50 [25] was 35.3 µM (inactive), the GI50 [26] was 43.7 µM (inactive) and the GI50 [27] was 34.4 µM (inactive). For the same compound, the GI50 [28] was 16.4 µM (inactive), the GI50 [29] was 30.8 µM (inactive) and the GI50 [30] was 22.1 µM (inactive). The GI50 [31] was 22.3 µM (inactive), the GI50 [32] was 24.5 µM (inactive) and the GI50 [33] was 48 µM (inactive). For the same compound, the GI50 [34] was 15 µM (inactive), the GI50 [35] was 33.6 µM (inactive) and the GI50 [36] was 31 µM (inactive). For the same compound, the GI50 [37] was 17.3 µM (inactive), the GI50 [38] was 20.7 µM (inactive) and the GI50 [39] was 18.7 µM (inactive). The GI50 [40] was 4.14 µM (inactive), the GI50 [41] was 34.3 µM (inactive) and the GI50 [42] was 20.6 µM (inactive). The GI50 [43] was 27.4 µM (inactive), the GI50 [44] was 12.7 µM (inactive) and the GI50 [45] was 18.8 µM (inactive). For the same compound, the GI50 [46] was 38.3 µM (inactive), the GI50 [47] was 34.3 µM (inactive) and the GI50 [48] was 28.8 µM (inactive). For the same compound, the GI50 [49] was 15.8 µM (inactive), the GI50 [50] was 38.8 µM (inactive) and the GI50 [51] was 29.5 µM (inactive). For the same compound, the GI50 [52] was 18.7 µM (inactive) and the GI50 [53] was 16.9 µM.
